Test [1] concerns TNBS-induced, post-inflammatory colonic hypersensitivity. In words: TNBS-induced post-inflammatory colonic hypersensitivity model, VMR to CRD. As to conditions: 0.25 mg/kg cetirizine, 0.6 mg/kg famotidine, each alone, oral twice daily 3.5 days; FIG. 8.
The subject of the next test is colonic hypersensitivity. Briefly: Three rat models of colonic hypersensitivity, overall statement and conversion to human equivalent doses. The note with it: 0.25 mg/kg cetirizine, 0.6 mg/kg famotidine, two times per day p.o.
The test system of test [2] is rat colonic mucosa. In words: Forskolin-induced short-circuit current across rat colonic mucosa. Format: cell-based. The note with it: 6 μM famotidine, 3 μM cetirizine, each alone; FIG. 4. An excerpt: (§1) Data are presented as mean±standard error of mean (SEM). […] 2014 December; 63(12):1873-82).
(§2) These secretogogues were selected because PGE2 mediates the occurrence of watery diarrhea in response to a low-grade inflammatory insult and forakolin because it selectively activates all forms of cAMP-mediated intestinal secretion.

Test [3] has as its system stress-induced visceral hypersensitivity. In words: Chronic water avoidance stress (WAS) model, visceromotor response to colorectal distension. The note with it: oral twice daily 3.5 days.
Test [4] deals with rat colonic mucosa. Briefly: Electrical field stimulation-induced short-circuit current across rat colonic mucosa in Ussing chambers. Format: cell-based. As to conditions: individually or combined; for effect on EFS-induced ΔISC: famotidine 10 μM, cetirizine 5 μM, EFS 16 Hz, FIG. 1; for inhibition of EFS-induced ΔISC: famotidine 200 μM, cetirizine 100 μM, FIG. 2.
From the text: as §1

Test [5] has as its system acetic acid-induced colonic hypersensitivity. The note with it: famotidine 0.6 mg/kg, cetirizine 0.25 mg/kg, each alone, oral twice daily 3.5 days; FIG. 7.
In test [6] the test system is rat colonic mucosa. In words: PGE2-induced short-circuit current across rat colonic mucosa. The note with it: 6 μM famotidine, 3 μM cetirizine, each alone; FIG. 3. Format: cell-based.
From the text: as §1, §2

Where [7] appears, read: famotidine 0.6 mg/kg, cetirizine 0.25 mg/kg, each alone, FIG. 6.
Where [8] appears, read: lowest doses: famotidine 0.3 mg/kg, cetirizine 0.15 mg/kg, alone or in combination, FIG. 5.

On to `NC(N)=Nc1nc(CSCCC(N)=NS(N)(=O)=O)cs1` [famotidine], for which the “effect on TNBS-induced colonic hypersensitivity” value in test [1] is on record as “Neither cetirizine alone nor famotidine alone exhibited any effect”. In addition, in the test with colonic hypersensitivity, the “inhibitory effect on colonic hypersensitivity in all three rat models” value is listed as “did not result in sufficient inhibition”. In the test with rat colonic mucosa [2], the “effect on forskolin-induced changes in ISC” value is recorded as “only minimally effective”. For the same compound, the “effect on colonic hypersensitivity” value in test [3] (setting [7]) is on record as “neither drug alone had an effect”. Moreover, the “effect on colonic hypersensitivity” value in test [3] (setting [8]) is given as “had no effect on colonic hypersensitivity”. Moreover, in the test with rat colonic mucosa [4], the “effect on EFS-induced ΔISC” value is on record as “had no effect” and the “inhibition of EFS-induced ΔISC” value is listed as “modest changes in ISC”. Besides, in test [5], the “inhibition of acetic acid-induced colonic hypersensitivity” value is listed as “not either drug alone, induced a significant inhibition”. Moreover, the “effect on PGE2-induced changes in ISC” value in the test on rat colonic mucosa [6] is listed as “neither drug alone was effective”.
As for `O=C(O)COCCN1CCN(C(c2ccccc2)c2ccc(Cl)cc2)CC1` (centres unmarked) [cetirizine], the “effect on TNBS-induced colonic hypersensitivity” value in test [1] is reported as “Neither cetirizine alone nor famotidine alone exhibited any effect”. Besides, the “inhibitory effect on colonic hypersensitivity in all three rat models” value with colonic hypersensitivity was “did not result in sufficient inhibition”. Besides, in the test on rat colonic mucosa [2], the “effect on forskolin-induced changes in ISC” value is listed as “only minimally effective”. Moreover, in test [3] (setting [7]), the “effect on colonic hypersensitivity” value is recorded as “neither drug alone had an effect”. Also, in test [3] (setting [8]), the “effect on colonic hypersensitivity” value is given as “had no effect on colonic hypersensitivity”. Moreover, in the test with rat colonic mucosa [4], the “effect on EFS-induced ΔISC” value is recorded as “had no effect” and the “inhibition of EFS-induced ΔISC” value is “modest changes in ISC”. For the same compound, in the test on rat colonic mucosa [6], the “effect on PGE2-induced changes in ISC” value is listed as “neither drug alone was effective”.

For the origin of these results see patent publication US11419868B2, “Low dose product and method for treating diarrhea” (MAREGADE RX, LLC, priority 2016, dated 2022).
